# Patent publication US20130052636A1, “RAPID DETECTION OF METABOLIC ACTIVITY” (SPECTRAL PLATFORMS, INC., priority 2011, published 2013)
# Legend:
# Type in all cases: cell-based
# [1] = system: methicillin resistant S. aureus (MRSA); experiment: Raman marker peak height versus time in serum with MRSA (FIG. 6); conditions: representative traces 32 and 34, FIG. 6
# Description: As described above, if the iron sequestration process is monitored via Raman spectroscopy, then the test involves the collection of a series of Raman spectra over time. A hypothetical depiction of this collection for a non-iron marker is depicted in FIG. 5. The individual Raman spectra comprise one or more peaks such as […], and 23 that, in the case of iron sequestration, are ascribed either to Fe-Tr (21 and 22) or to the apo-Tr and/or serum lipoproteins (23). The peak heights from one of the Fe-Tr peaks (for instance, 22) are monitored over time, as depicted in FIG. 5. If viable pathogens are present, and are sequestering iron to afford Fe-Tr, then the iron-transferrin peaks decrease over time, as depicted by traces 33 and 34 in FIG. 6. On the other hand, if viable pathogens are not present, or if viable pathogens are present in the assay together with an effective antimicrobial agent, then the peak heights are nearly invariant with time.
# With reference to FIGS. 5 and 6, if the lycopene consumption is monitored via Raman spectroscopy as an indicator of metabolic activity, then the test involves the collection of a series of Raman spectra over time. A representative depiction of this collection is depicted in FIG. 5. […]
# HL60 human cells = experiment: Toxin detection: lycopene Raman peak in human serum, trypticase soy broth and HL60 cells; conditions: 4 μM, FIG. 24, 25
# Description: FIG. 24 depicts the results of one toxin detection experiment. A control sample comprising human serum (centrifuged from the blood collected from a healthy volunteer) was combined with trypticase soy broth and HL60 human cells. […] FIG. 25 plots the normalized intensity for the 1516 cm^−1 peak as a function of time for the rhizoxin containing sample.
# S. aureus = experiment: Lycopene Raman peak (1516 cm^-1) slope versus time in inoculated serum, MIC estimate; conditions: S. aureus 10^5 cfu/mL; vancomycin 1, 5 and 20 μg/mL; FIG. 17
# Protocol: FIGS. 17 & 18 illustrate the method by which a marker can be used to estimate the minimum inhibitory concentration MIC. FIG. 17 illustrates the Raman peak height at 1516 cm^−1 (which has been ascribed to lycopene) as a function of time for several samples. The samples include a serum sample that has been artificially inoculated with S. aureus to a concentration of 10^5 cfu/mL, and additional samples that also contain various concentrations of vancomycin (1, 5 and 20 μg/mL) as indicated in the legend.
# FIG. 18 plots the slope of all the traces in FIG. 17, as a function of added vancomycin concentration. The dashed horizontal line corresponds to the slope of the sample without any added vancomycin, and the 3 data points correspond to vancomycin concentrations of 1, 5 and 20 μg/mL. The solid black line is a logarithmic fit of the 3 data points, and the MIC corresponds to the point at which the solid black line intersects the dashed line.
SMILES,effectiveness of dose by peak height versus time trace [1],lycopene peak height (1516 cm^-1) over time (HL60 human cells),slope of lycopene 1516 cm^-1 peak intensity versus time (S. aureus)
CC1(C)S[C@@H]2[C@H](NC(=O)[C@H](N)c3ccccc3)C(=O)N2[C@H]1C(=O)O [ampicillin],ineffective dose,–,–
CO[C@@H](/C(C)=C/C=C/C(C)=C/c1coc(C)n1)[C@@H](C)[C@@H]1C[C@H](O)[C@@]2(C)O[C@@H]2/C=C/[C@@H](C)[C@H]2C[C@H](CC(=O)O2)C[C@@H]2O[C@H]2C(=O)O1 [rhizoxin],–,"increases significantly at first, followed by a steady decline",–
CN[C@H](CC(C)C)C(=O)N[C@H]1C(=O)N[C@@H](CC(N)=O)C(=O)N[C@H]2C(=O)N[C@H]3C(=O)N[C@H](C(=O)N[C@H](C(=O)O)c4cc(O)cc(O)c4-c4cc3ccc4O)[C@H](O)c3ccc(c(Cl)c3)Oc3cc2cc(c3O[C@@H]2O[C@H](CO)[C@@H](O)[C@H](O)[C@H]2O[C@H]2C[C@](C)(N)[C@H](O)[C@H](C)O2)Oc2ccc(cc2Cl)[C@H]1O [vancomycin],effective dose,–,slope progressively decreases as more vancomycin is added
